The values below come from article PMC8532147, “Dual Stimuli-Responsive Dynamic Covalent Peptide Tags: Toward Sequence-Controlled Release in Tumor-like Microenvironments” (Journal of the American Chemical Society, 2021).

Usually fraction remaining stands for the share of the starting amount still present when the sample was taken. Read a low fraction remaining as a greater loss.

The nature of series [1]: Stability under oxidative conditions (0.1% hydrogen peroxide). The settings on record: LC-MS SIM. The series is classed as physicochemical. The protocol: We further determined the stability of the hybridized sequences under oxidative conditions. The oxidized complex, 2Ox was incubated with 0.1% hydrogen peroxide ([…]). Aliquots were analyzed via LC-MS over different time intervals up to 60 min (SI, Figure S23) using SIM detection. Besides monitoring the decrease in the m/z of 2Ox, SIM also offers the possibility to identify degradation products and allowed us to map the chemical processes involved in the oxidative condition implemented. […] We observed complete conversion to compound 3 (Figure 6c,d). […]
12. Fluorescence quenching assay
Four stock solutions were prepared: 5 mM OSCSO, 2 μM DL488 -BSCSB in a phosphate buffer (100 mM, pH = 6.0, 2.5 mM TCEP) and 5 mM OSCSO, 2 µM DL488-BSCSB in a phosphate buffer (100 mM, pH = 7.4, 2.5 mM TCEP). […] FQA was measured immediately.
The procedure was repeated 3 times both for pH 6.0 and 7.4. Each point on the graph represents mean average of normalized fluorescence for one concentration from the series and error bars represent standard […]
The NMR spectra were recorded on a Bruker AVANCE III 850 MHz spectrometer with a 5 mm triple resonance TXI 1H/13C/15N probe equipped wit h a z-gradient. All spectra were measured at 298 K. The spectra were analyzed using Bruker TopSpin 3.6.1. […]

Series [2] in a line: in vitro. The series is classed as in vitro ADME. The note with it: calf (bovine), cells or culture medium. On the procedure:
Next, the stability of 2Ox in glucose containing solutions were tested since it is known that phenyl boronic acids interact with sugars.[11]2Ox was incubated in glucose solution (1 g/mL) or […] DMEM cell media (1 g/mL), which was used in the subsequent cell studies. The analysis was performed for up to 3 days and quantitative analysis was obtained using single ion monitoring (SIM) of m/z of 2Ox (m/z = 664, 388) in LC-ESI-MS to improve sensitivity in detection (SI, Figure S20). Fmoc-Phe-OH was used as an internal standard. […] The amount of 2Ox decreased by around 20% in low glucose DMEM cell culture media after a day of incubation (SI, Figure S20). The decrease is presumably due to the disulfide exchange with free thiols inside the media (10% FCS and cysteine according to manufacturer’s specifications). Nevertheless, 2Ox is sufficiently stable to potential thiol exchange for subsequent biological studies.
(§1) The UV (280 nm) signals were integrated and normalized against the Fmoc-Phe standard as well as the SIM for 664 against the SIM of 388. The relative area was then plotted against the incubation time.
(§2) Figure S 20: Stability of 2Ox in glucose solution (GS) and low glucose cell media (LGM) detected by UV -Vis and ESI-MS. […]
(§3) expected due to free thiols in the media (FCS and cysteine).
(§4) 11. Stability in cytosol under oxidative/reductive conditions
(§5) Stability in liver cytosol […]

A short description of series [3]: in vitro. Type of series: in vitro ADME. The settings on record: s9 or cytosol. On the procedure:
Such differences in the physiological concentration of GSH have been exploited for controlled release. Thus, the GSH-induced cleavage of 1 mM of 2Ox was probed by incubation in commercially available liver cytosols spiked with physiologically relevant concentrations of GSH:GSSG (1:0.025 and 10:0.25 mM). The analysis was performed for up to 60 min and quantitative analysis was obtained using SIM in LC-MS (2Ox, m/z = 1328, 664) with Fmoc-Phe-OH as an internal standard (SI, Figure S22). […] On the other hand, at a concentration of 10 mM (molar ratio 10:1) the reaction was slightly slower due to longer equilibration time. […] Therefore, although the oxidized complex is stable over a longer period in serum (Figure 6a), GSH release could be induced in cytosolic conditions in cancer cells (Figure 6b), which would be important for controlled release as a drug delivery system.
as §1, §2, §3, §4, §5

Molecules are shown by their SMILES. Bridge positions count the residues as written; N and C are the ends. Square brackets hold non-standard residues; d marks the D form. Peptide text beside a SMILES is read from it. I, II: the chains in the order shown. Phe(4-B(OH)2) = N[C@@H](Cc1ccc(B(O)O)cc1)C(=O)O; Dopa = N[C@@H](Cc1ccc(O)c(O)c1)C(=O)O

Turning to `NC(=O)[C@H](Cc1ccc(B(O)O)cc1)NC(=O)[C@H](CO)NC(=O)[C@H](CSSC[C@H](NC(=O)[C@H](CO)NC(=O)[C@@H](N)Cc1ccc(O)c(O)c1)C(=O)N[C@@H](CO)C(=O)N[C@@H](Cc1ccc(O)c(O)c1)C(N)=O)NC(=O)[C@H](CO)NC(=O)[C@@H](N)Cc1ccc(B(O)O)cc1` [2Ox] (I: H-[Phe(4-B(OH)2)]SCS[Phe(4-B(OH)2)]-NH2 / II: H-[Dopa]SCS[Dopa]-NH2; disulfide I:3-II:3), the starting material left entry in series [1] (1 mM in ammonium bicarbonate with 0.1% hydrogen peroxide (30 μM), after 10 min) is “no starting material is left”. Besides, in series [1] (0.1% hydrogen peroxide (30 μM), up to 60 min), the “dissociation into the single peptide sequences” value is reported as “did not dissociate”. Also, in “in vitro [2]”, the metabolised at 24 h was about 20%. In the series “in vitro [3]”, the share remaining at 10 min, 1 mM is 80%.
